Reference: patent US20250270445A1, “COMPOUNDS AND USES THEREOF IN FIELD OF OPTOELECTRONICS” (Zhejiang Brilliant Optoelectronic Technology Co.,Ltd., priority 2022, published 2025)

Columns and labels:
Type in all cases: physicochemical
[1] = Absorption spectrum, emission spectrum and extinction coefficient in toluene solution; settings: for Molar extinction coefficient of the toluene solution: maximum absorption peak
Procedure: The extinction coefficients of the compounds and their absorption and emission spectrums in the solution were determined as follows: • 1. The compound with a certain amount of substance concentration in the toluene was prepared in a volumetric flask. • 2. The absorption spectrum of the solution was measured by using an ultraviolet-visible spectrophotometer (Puxi T9s) to obtain the absorption peak wavelength. • 3. The absorbance of the maximum absorption peak divided by the amount of substance concentration is the molar extinction coefficient of the compound. • 4. The emission spectrum of the solution was measured by using a fluorescent spectroscope (Hitachi, F-4700 FL Spectrophotometer) to obtain the emission peak wavelength.

[2] = Absorption and emission spectrum in spin-coated film; settings: spin-coated film
Procedure: The absorption and emission spectrums of the compounds in the film were determined as follows: • 1. The compound with a certain concentration in the toluene was prepared. • 2. The prepared toluene solution was dropped onto a clean glass substrate. • 3. Spin-coating, and then heating at the 80° C. for 1 min. • 4. The absorption spectrum of the film was measured by using an ultraviolet-visible spectrophotometer (Puxi T9s) to obtain the absorption peak wavelength. • 5. The emission spectrum of the film was measured by using a fluorescent spectroscope (Hitachi, F-4700 FL Spectrophotometer) to obtain the emission peak wavelength.

[3] = Solubility of compounds in toluene
Procedure: The solubility of the compounds in the toluene were determined as follows: • 1. 1000 mg of toluene solution was placed in the transparent glass sample bottle. • 2. A certain mass of the compound was added into the toluene, and oscillated until completely dissolved. • 3. After the compound was completely dissolved, a certain mass of the compound was further added into the toluene, and oscillated. • 4. The above steps were repeated until the compound wasn't dissolved any more. • 5. The total mass of the compound added was recorded and the solubility was obtained by calculation.

[4] = UV stability of compounds in toluene (absorbance decay to 80%); settings: 1×10^−5 mol/L in toluene, UV LEDs 365 nm & 255 nm, time to 80% absorbance, normalized to comparative compound 2 as 100%
Procedure: The compound was dissolved in the toluene with a concentration of 1×10^−5 mol/L. 3 mL solution was added to the cuvette with a lid and the lid was screwed on tightly, then the cuvette was placed in the ultraviolet-visible spectrophotometer to test the absorption spectrum, the absorbance of the maximum absorption peak was recorded as the initial value. The cuvette was placed at a distance of 12 cm from the UV LEDs (365 nm & 255 nm), irradiated for a period and tested its absorption spectrum, then continued to be irradiated after the test, and repeated until the absorbance decayed to 80% of its initial value, the time was recorded as t80.

[5] = Blue light stability of the film (luminance decay); settings: about 800 nm evaporated film, blue LED 460 nm, 3000 cd/m^2, versus comparative compound 1
Procedure: A film about 800 nm was evaporated, encapsulated with a glass cover plate, then placed at 2.5 cm above the blue LED (460 nm, 3000 cd/m^2) to test the luminance value with a luminance meter (Fstar, CS-2000A). The luminance value of the first test was recorded as the initial value, and the luminance was tested by irradiating for a period of time to obtain the luminance decay curve, see FIG. 34.

SMILES	Absorption peak of the toluene solution [1]	Emission peak of the toluene solution [1]	Molar extinction coefficient of the toluene solution [1]	Absorption peak of the film [2]	Emission peak of the film [2]	Solubilities(/100 g, toluene) [3]	Times t80 [4]	stability of the film under blue-light illumination (luminance decay) [5]
Cc1cccc(C)c1N(c1cc(C(C)(C)C)cc(C(C)(C)C)c1)c1cc(N(c2cc(C(C)(C)C)cc(C(C)(C)C)c2)c2c(C)cccc2C)c2ccc3c(N(c4cc(C(C)(C)C)cc(C(C)(C)C)c4)c4c(C)cccc4C)cc(N(c4cc(C(C)(C)C)cc(C(C)(C)C)c4)c4c(C)cccc4C)c4ccc1c2c43 [compound 5]	477 nm	497 nm	5.6 × 10^4 L · mo 1^−1	476 nm	497 nm	4.6 g/100 g toluene	304%	
CCc1cccc(CC)c1N(c1cc(C(C)(C)C)cc(C(C)(C)C)c1)c1cc(N(c2cc(C(C)(C)C)cc(C(C)(C)C)c2)c2c(CC)cccc2CC)c2ccc3c(N(c4cc(C(C)(C)C)cc(C(C)(C)C)c4)c4c(CC)cccc4CC)cc(N(c4cc(C(C)(C)C)cc(C(C)(C)C)c4)c4c(CC)cccc4CC)c4ccc1c2c43 [compound 8]	484 nm	501 nm	5.3 × 10^4 L · mo 1^−1	482 nm	499 nm	30.1 g/100 g toluene	261%	obviously improved UV stability
CCc1cccc(CC)c1N(c1ccc(C(C)(C)C)cc1)c1cc(N(c2ccc(C(C)(C)C)cc2)c2c(CC)cccc2CC)c2ccc3c(N(c4ccc(C(C)(C)C)cc4)c4c(CC)cccc4CC)cc(N(c4ccc(C(C)(C)C)cc4)c4c(CC)cccc4CC)c4ccc1c2c43 [compound 9]	482 nm	500 nm	5.3 × 10^4 L · mo 1^−1	482 nm	499 nm	25.9 g/100 g toluene	279%	
CCCCCCCCc1ccc(-c2cc(C(C)C)ccc2N(c2cc(F)c(F)c(F)c2)c2cc(N(c3cc(F)c(F)c(F)c3)c3ccc(C(C)C)cc3-c3ccc(CCCCCCCC)cc3)c3ccc4c(N(c5cc(F)c(F)c(F)c5)c5ccc(C(C)C)cc5-c5ccc(CCCCCCCC)cc5)cc(N(c5cc(F)c(F)c(F)c5)c5ccc(C(C)C)cc5-c5ccc(CCCCCCCC)cc5)c5ccc2c3c54)cc1 [compound 13]	473 nm	494 nm	5.9 × 10^4 L · mo 1^−1	473 nm	490 nm	>15 g/100 g toluene	410%	
CC1CCC(C(C)C)C(Oc2ccc(-c3cc(C(C)C)ccc3N(c3cc(F)c(F)c(F)c3)c3cc(N(c4cc(F)c(F)c(F)c4)c4ccc(C(C)C)cc4-c4ccc(OC5CC(C)CCC5C(C)C)cc4)c4ccc5c(N(c6cc(F)c(F)c(F)c6)c6ccc(C(C)C)cc6-c6ccc(OC7CC(C)CCC7C(C)C)cc6)cc(N(c6cc(F)c(F)c(F)c6)c6ccc(C(C)C)cc6-c6ccc(OC7CC(C)CCC7C(C)C)cc6)c6ccc3c4c65)cc2)C1 (centres unmarked) [compound 15]	476 nm	493 nm	6.8 × 10^4 L · mo 1^−1	473 nm	491 nm	>10 g/100 g toluene	440%	
CCCCCCCCc1ccc(-c2cc(OC)ccc2N(c2cc(F)c(F)c(F)c2)c2cc(N(c3cc(F)c(F)c(F)c3)c3ccc(OC)cc3-c3ccc(CCCCCCCC)cc3)c3ccc4c(N(c5cc(F)c(F)c(F)c5)c5ccc(OC)cc5-c5ccc(CCCCCCCC)cc5)cc(N(c5cc(F)c(F)c(F)c5)c5ccc(OC)cc5-c5ccc(CCCCCCCC)cc5)c5ccc2c3c54)cc1 [compound 16]	475 nm	496 nm	7.0 × 10^4 L · mo 1^−1	476 nm	496 nm	>10 g/100 g toluene	383%	
CCCCCCCCc1ccc(N(c2ccc(C(C)C)cc2-c2cc(F)c(F)c(F)c2)c2cc(N(c3ccc(CCCCCCCC)cc3)c3ccc(C(C)C)cc3-c3cc(F)c(F)c(F)c3)c3ccc4c(N(c5ccc(CCCCCCCC)cc5)c5ccc(C(C)C)cc5-c5cc(F)c(F)c(F)c5)cc(N(c5ccc(CCCCCCCC)cc5)c5ccc(C(C)C)cc5-c5cc(F)c(F)c(F)c5)c5ccc2c3c54)cc1 [compound 20]	485 nm	504 nm	5.5 × 10^4 L · mo 1^−1	486 nm	504 nm	>10 g/100 g toluene	528%	
